Measured values from patent publication US9018630B2, “Heterocyclic dinaphtho thieno thiophene (DNTT) compounds for use as organic semiconductor thin films in field effect transistors and related methods” (Nippon Kayaku Kabushiki Kaisha, priority 2011, dated 2015).
In brackets after ≈: the same amount, converted by molar mass.

Key:
[1] = Solubility at 60° C. in toluene (Example 52); type: physicochemical
From the text: (§1) Absorption spectrums of saturated solutions obtained by dissolving the DNTT having a C10 alkyl group at 2,9-positions (compound (2)-64), the DNTT having a C10 alkyl group at 3,10-positions (compound (1)-12), and the like in chloroform are shown in FIG. 4. In the case of the DNTT having a C10 long-chain alkyl group, from the results, the relative intensity of the longest absorption wavelength according to the substitution position was 3.9 in 3,10-C10-DNTT (compound (1)-12) wherein the relative intensity was 1 in 2,9-C10-DNTT (compound (2)-64). […] It was clearly found out that the solubility of 3,10-C10-DNTT (compound (1)-12) was also high in a heating state (Table 10).

[2] = Solvent solubility, qualitative statements; type: physicochemical
From the text: (§2) From FIG. 4 wherein the solubility of the DNTT was 1, the solubility ratio of the DNTT having a short alkyl chain Ref-02 was 0.1 and the solubility ratio of the DNTT having a short alkyl chain Ref-03 was 0.5. […] It was also found out that considering the solution process, the compound having an alkyl substituent at 3,10-positions has more excellent properties. Namely, use of such high solubility enables production of a field effect transistor by creating a practical ink for creating a semiconductor device or applying the ink created.

[3] = Absorption spectrums of saturated chloroform solutions, solubility ratio (Example 52, FIG. 4); type: physicochemical; details: for relative intensity of the longest absorption wavelength / Solubility ratio Chloroform: saturated chloroform solutions; for relative intensity of the longest absorption wavelength: 2,9-C10-DNTT = 1; for Solubility ratio Chloroform: compound (2)-64 = 1; for solubility ratio: from FIG. 4, solubility of the DNTT = 1
From the text: as §1, §2

[4] = Heat resistance test of TC type field effect transistors (Example 51); details: heat resistance test of the transistor
Procedure: Using the compound (1)-22 synthesized in Example 39 and the compound (2)-64 synthesized in Synthesis Example 14, TC type field effect transistors were created by the same operation as that in Example 49 except that a substrate treated with HMDS-SAM was used, the substrate temperature during deposition was 100° C., L=40 μm, and W=1500 μm. The obtained field effect transistors were subjected to a heat resistance test. Comparing the initial properties (μ=1.66 cm^2/Vs, Vth=−14 V, Ion/off˜10^9), the mobility was approximately 1.6 cm^2/Vs even after annealing at 100° C. and 150° C., and the values of these properties were kept approximately equal to the initial values thereof. The properties were improved, for example, Vth was shifted to a low potential side.

Row | solvent solubility [2] | melting point [°C] | relative intensity of the longest absorption wavelength [3] | Solubility ratio Chloroform [3] | solubility ratio [3] | Structure (SMILES) | other results
1 |  | > 300 |  |  |  | c1ccc(-c2ccc3cc4sc5c6cc7cc(-c8ccccc8)ccc7cc6sc5c4cc3c2)cc1 [(1)-22, 3,10-diphenyl dinaphtho[2,3-b:2′,3′-f]thieno[3,2-b]thiophene] | thermal stability [4]: high thermal stability
2 |  |  | 1 | 1 |  | CCCCCCCCCCc1ccc2cc3sc4c5cc6cc(CCCCCCCCCC)ccc6cc5sc4c3cc2c1 [(2)-64, 2,9-didecyldinaphtho[2,3-b:2′,3′-f]thieno[2,3-b]thiophene] | Solubility 60° C. toluene [1]: 45 µg/mL (≈ 72.5 µM)
3 | does not dissolve in most of solvents |  |  |  | 1 | c1ccc2cc3c(cc2c1)sc1c2cc4ccccc4cc2sc31 [Ref-01, Dinaphtho[2,3-b:2′,3′-f]thieno[3,2-b]thiophene] | 

Further lines, the molecule ahead of its results:

Row | Structure (SMILES) | solvent solubility [2] | melting point [°C] | relative intensity of the longest absorption wavelength [3] | Solubility ratio Chloroform [3] | solubility ratio [3] | other results
4 | CCCCCCCCCCc1ccc2cc3sc4c5cc6cc(CCCCCCCCCC)ccc6cc5sc4c3cc2c1 [(1)-12, 3,10-didecyl dinaphtho[2,3-b:2′,3′-f]thieno[2,3-b]thiophene] | higher solvent solubility than that of the compound (2)-64 | 187 to 188 | 3.9 | 3.8 |  | solubility ([1]; organic solvent or mixture, 60° C., toluene): > 260 µg/mL
5 | Cc1ccc2cc3sc4c5cc6cc(C)ccc6cc5sc4c3cc2c1 [Ref-02] | do not dissolve in most of solvents |  |  |  | 0.1 | 
6 | Cc1ccc2cc3c(cc2c1)sc1c2cc4ccc(C)cc4cc2sc31 [Ref-03] | do not dissolve in most of solvents |  |  |  | 0.5 | 
